# Earlier results in patent publication US20090175934A1, “Extended Release Pharmaceutical Formulation of Venlafaxine and Method of Manufacturing the Same” (Jubilant Organosys Ltd., priority 2006, published 2009).
# Where a name gives a salt, the structure may show the parent alone.
# Experiments:
# [1] = compressed tablets, therapeutic dosing
# patients = conditions: plural daily dosing regimen
compound,measurement,setting,value
COc1ccc(C(CN(C)C)C2(O)CCCCC2)cc1 (stereo not drawn) [Venlafaxine hydrochloride],time until sub-therapeutic plasma levels are approached following administration,[1],about twelve hours
same,patients experiencing nausea,patients,about forty five percent
same,patients in whom vomiting occurs,patients,about seventeen percent
